The results in this text go back to ChEMBL document CHEMBL3045794, “Antimicrobial activity of thiazolyl benzenesulfonamide-condensed 2,4-thiazolidinediones derivatives” (2013).

Test [1] deals with Pseudomonas aeruginosa. Put plainly: Antibacterial activity against Pseudomonas aeruginosa MTCC 741 assessed as diameter of growth inhibition zone after 24 hr by Kirby-Bauer disk diffusion method. In kind it is functional.
Test [2] relates to Bacillus subtilis. The experiment in a line: Antibacterial activity against Bacillus subtilis MTCC 619 assessed as growth inhibition after 24 hr by Kirby-Bauer disk diffusion method. The class given is functional. The conditions noted are these: MTCC 619, 24 h. Background: Agar diffusion results depend on both activity and mobility in agar.
In test [3] the test system is Mycobacterium tuberculosis. Put plainly: Antitubercular activity against Mycobacterium tuberculosis H37Rv MTCC 200 assessed as growth inhibition measured within 10 days by BACTEC MGIT method. The class given is functional. As to conditions: H37Rv MTCC 200, 240 h.
Test [4] relates to Bacillus subtilis. The experiment in a line: Antibacterial activity against Bacillus subtilis MTCC 619 assessed as diameter of growth inhibition zone after 24 hr by Kirby-Bauer disk diffusion method. The class given is functional.
For test [5], the system named is Escherichia coli. The experiment in a line: Antibacterial activity against Escherichia coli MTCC 739 assessed as growth inhibition after 24 hr by Kirby-Bauer disk diffusion method. As to conditions: MTCC 739, 24 h. In kind it is functional.
Test [6] has as its system Staphylococcus aureus. Put plainly: Antibacterial activity against Staphylococcus aureus MTCC 96 assessed as diameter of growth inhibition zone after 24 hr by Kirby-Bauer disk diffusion method. In kind it is functional.
The test system of test [7] is Staphylococcus aureus. Put plainly: Antibacterial activity against Staphylococcus aureus MTCC 96 assessed as growth inhibition after 24 hr by Kirby-Bauer disk diffusion method. The conditions noted are these: MTCC 96, 24 h. The class given is functional.
Test [8] concerns Escherichia coli. Put plainly: Antibacterial activity against Escherichia coli MTCC 739 assessed as diameter of growth inhibition zone after 24 hr by Kirby-Bauer disk diffusion method. In kind it is functional.
The subject of test [9] is Pseudomonas aeruginosa. Put plainly: Antibacterial activity against Pseudomonas aeruginosa MTCC 741 assessed as growth inhibition after 24 hr by Kirby-Bauer disk diffusion method. The conditions noted are these: MTCC 741, 24 h. The class given is functional.
For test [10], the system named is Escherichia coli. The experiment in a line: microbe, parasite or virus in culture. The conditions noted are these: MTCC 739, 24 h, read-out: DIZ.
Description: Antibacterial activity against Escherichia coli MTCC 739 assessed as diameter of growth inhibition zone at 100 ug/disk after 24 hr by Kirby-Bauer disk diffusion method
The test system of test [11] is Bacillus subtilis. Put plainly: microbe, parasite or virus in culture. As to conditions: MTCC 619, 24 h, read-out: DIZ.
Description: Antibacterial activity against Bacillus subtilis MTCC 619 assessed as diameter of growth inhibition zone at 100 ug/disk after 24 hr by Kirby-Bauer disk diffusion method
Test [12] has as its system Staphylococcus aureus. The experiment in a line: Antibacterial activity against Staphylococcus aureus MTCC 96 assessed as diameter of growth inhibition zone at 100 ug/disk after 24 hr by Kirby-Bauer disk diffusion method. The conditions noted are these: MTCC 96, 24 h, read-out: DIZ.
In test [13] the test system is Pseudomonas aeruginosa. Put plainly: microbe, parasite or virus in culture. The conditions noted are these: MTCC 741, 24 h, read-out: DIZ.
Description: Antibacterial activity against Pseudomonas aeruginosa MTCC 741 assessed as diameter of growth inhibition zone at 100 ug/disk after 24 hr by Kirby-Bauer disk diffusion method

Broadly, the MIC is the lowest concentration that inhibits growth of the organism. What is called MIC99 is the lowest concentration that inhibits either 99% of growth or 99% of the strains tested, depending on the study.

Values after ≈ are worked out from the molar mass of the structure shown. Some results are limits rather than exact numbers.

Take `Cc1cccc(C(=O)N2C(=O)S/C(=C\c3ccc(S(=O)(=O)Nc4nc(-c5ccccc5)cs4)cc3)C2=O)c1`: the “diameter of the inhibition zone (DIZ)” value is recorded as 19 mm in [1], 18 mm in test [4], 18 mm in test [6] and 18 mm in test [8]. Besides, the MIC in test [2], in test [5], in test [7] and in test [9] was 100 µg/mL (≈ 178 µM) each time. For the same molecule, the MIC99 in [3] worked out at 125 µg/mL (≈ 223 µM).
Take `Cc1ccc(C(=O)N2C(=O)S/C(=C\c3ccc(S(=O)(=O)Nc4nc(-c5ccccc5)cs4)cc3)C2=O)cc1`: the “diameter of the inhibition zone (DIZ)” value came to 22 mm in test [1], 23 mm in test [4], 22 mm in [6] and 22 mm in [8]. Besides, the MIC in test [2], in test [5], in [7] and in test [9] was 50 µg/mL (≈ 89 µM) in each case. Also, the MIC99 in test [3] amounted to 250 µg/mL (≈ 445 µM).
For `O=C1S/C(=C\c2ccc(S(=O)(=O)Nc3nc(-c4ccccc4)cs3)cc2)C(=O)N1C(=O)c1ccccc1Cl`, the “diameter of the inhibition zone (DIZ)” value in test [1] stood at 24 mm; in [4], 26 mm; in [6] it was 24 mm; in test [8], 25 mm. Further, the MIC in test [2] is 6.25 µg/mL (≈ 10.7 µM); in test [5], 12.5 µg/mL (≈ 21.5 µM); in [7] it was 6.25 µg/mL (≈ 10.7 µM); in test [9], 12.5 µg/mL (≈ 21.5 µM). Besides, the MIC99 in test [3] stood at 62.5 µg/mL (≈ 107 µM).
On to `O=C1S/C(=C\c2ccc(S(=O)(=O)Nc3nc(-c4ccccc4)cs3)cc2)C(=O)N1C(=O)c1cccc(Cl)c1`, for which the “diameter of the inhibition zone (DIZ)” value in test [1] turned out to be 24 mm; in test [4], 25 mm; in test [6], 26 mm; in [8], 24 mm. For the same molecule, the MIC was found to be 12.5 µg/mL (≈ 21.5 µM) in [2], 25 µg/mL (≈ 42.9 µM) in test [5], 12.5 µg/mL (≈ 21.5 µM) in test [7] and 25 µg/mL (≈ 42.9 µM) in [9]. In addition, the MIC99 in test [3] turned out to be 62.5 µg/mL (≈ 107 µM).
For `O=C1S/C(=C\c2ccc(S(=O)(=O)Nc3nc(-c4ccccc4)cs3)cc2)C(=O)N1C(=O)c1ccc(Cl)cc1`, the “diameter of the inhibition zone (DIZ)” value in test [1] stood at 22 mm; in [4] it was 26 mm; in test [6], 24 mm; in [8] it was 23 mm. Besides, the MIC came to 6.25 µg/mL (≈ 10.7 µM) in test [2], 25 µg/mL (≈ 42.9 µM) in [5], 6.25 µg/mL (≈ 10.7 µM) in test [7] and 12.5 µg/mL (≈ 21.5 µM) in [9]. The MIC99 in test [3] is 62.5 µg/mL (≈ 107 µM).
`O=C1S/C(=C\c2ccc(S(=O)(=O)Nc3nc(-c4ccccc4)cs3)cc2)C(=O)N1C(=O)c1cccc([N+](=O)[O-])c1`: the “diameter of the inhibition zone (DIZ)” value worked out at 22 mm in test [1], 24 mm in test [4], 21 mm in test [6] and 22 mm in [8]. Also, the MIC in [2] was 25 µg/mL (≈ 42.2 µM); in test [5] it was 62.5 µg/mL (≈ 105 µM); in test [7], 62.5 µg/mL (≈ 105 µM); in test [9] it was 62.5 µg/mL (≈ 105 µM). Moreover, the MIC99 in test [3] was found to be 1000 µg/mL (≈ 1690 µM).
As for `O=C1S/C(=C\c2ccc(S(=O)(=O)Nc3nc(-c4ccccc4)cs3)cc2)C(=O)N1C(=O)c1ccc([N+](=O)[O-])cc1`, the “diameter of the inhibition zone (DIZ)” value in test [1] is listed as 24 mm; in test [4] it was 24 mm; in test [6] it was 25 mm; in test [8], 24 mm. The minimum inhibitory concentration (MIC) in test [2] worked out at 12.5 µg/mL (≈ 21.1 µM); in test [5] it was 50 µg/mL (≈ 84.4 µM); in test [7], 25 µg/mL (≈ 42.2 µM); in test [9] it was 25 µg/mL (≈ 42.2 µM). Also, the MIC99 in test [3] was determined as 500 µg/mL (≈ 844 µM).
As for `O=C1S/C(=C\c2ccc(S(=O)(=O)Nc3nc(-c4ccccc4)cs3)cc2)C(=O)N1C(=O)c1ccc([N+](=O)[O-])cc1[N+](=O)[O-]`, the “diameter of the inhibition zone (DIZ)” value in test [1] was 22 mm; in [4], 22 mm; in [6] it was 23 mm; in test [8] it was 24 mm. In addition, the MIC came out at 6.25 µg/mL (≈ 9.8 µM) in [2], 12.5 µg/mL (≈ 19.6 µM) in test [5], 12.5 µg/mL (≈ 19.6 µM) in test [7] and 100 µg/mL (≈ 157 µM) in test [9]. For the same molecule, in test [3], the MIC99 was 1000 µg/mL (≈ 1570 µM).
Take `O=C1S/C(=C\c2ccc(S(=O)(=O)Nc3nc(-c4ccccc4)cs3)cc2)C(=O)N1C(=O)c1ccccc1`: the “diameter of the inhibition zone (DIZ)” value in [1] stood at 22 mm; in test [4] it was 24 mm; in [6], 21 mm; in test [8] it was 22 mm. Also, the MIC came to 25 µg/mL (≈ 45.7 µM) in [2], 62.5 µg/mL (≈ 114 µM) in test [5], 62.5 µg/mL (≈ 114 µM) in test [7] and 62.5 µg/mL (≈ 114 µM) in test [9]. The MIC99 in test [3] came out at 125 µg/mL (≈ 228 µM).
On to `O=C(O)c1cn(C2CC2)c2cc(N3CCNCC3)c(F)cc2c1=O` [CIPROFLOXACIN], for which the minimal inhibitory concentration (MIC) in [2], in test [5], in test [7] and in [9] was ≤ 1 µg/mL throughout. Also, the zone of inhibition at 100 µg/disc in test [10] amounted to 30 mm; in [11], 33 mm; in [12], 32 mm; in [13] it was 31 mm.
As for `NNC(=O)c1ccncc1` [ISONIAZID], in [3], the MIC99 is 0.2 µg/mL (≈ 1.46 µM).
